Data reported in PubChem BioAssay (NCI).
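Values below derive from 48-hour exposures of cells grown in 96-well plates, with endpoints linearly interpolated between the two concentrations bracketing the appropriate inhibition level. GI50 is the concentration that inhibits growth by half. TGI: total growth inhibition.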

Key:
Assay in all cases: inhibition of tumour cell growth, NCI panel, 48 h
786-0 renal = tested on: 786-0 renal
A498 renal = tested on: A498 renal
A549 NSCLC = tested on: A549 NSCLC
ACHN renal = tested on: ACHN renal
BT-549 breast = tested on: BT-549 breast
CAKI-1 renal = tested on: CAKI-1 renal
CCRF-CEM leukemia = tested on: CCRF-CEM leukemia
COLO 205 colon = tested on: COLO 205 colon
DU-145 prostate = tested on: DU-145 prostate
EKVX NSCLC = tested on: EKVX NSCLC
HCC-2998 colon = tested on: HCC-2998 colon
HCT-116 colon = tested on: HCT-116 colon
HCT-15 colon = tested on: HCT-15 colon
HL-60(TB) leukemia = tested on: HL-60(TB) leukemia
HOP-62 NSCLC = tested on: HOP-62 NSCLC
HOP-92 NSCLC = tested on: HOP-92 NSCLC
HS 578T breast = tested on: HS 578T breast
HT29 colon = tested on: HT29 colon
IGROV1 ovarian = tested on: IGROV1 ovarian
K-562 leukemia = tested on: K-562 leukemia
KM12 colon = tested on: KM12 colon
LOX IMVI melanoma = tested on: LOX IMVI melanoma
M14 melanoma = tested on: M14 melanoma
MALME-3M melanoma = tested on: MALME-3M melanoma
MCF7 breast = tested on: MCF7 breast
MDA-MB-231 breast = tested on: MDA-MB-231 breast
MDA-MB-435 = tested on: MDA-MB-435
MOLT-4 leukemia = tested on: MOLT-4 leukemia
NCI-H226 lung = tested on: NCI-H226 lung
NCI-H23 lung = tested on: NCI-H23 lung
NCI-H460 lung = tested on: NCI-H460 lung
NCI-H522 lung = tested on: NCI-H522 lung
NCI/ADR-RES ovarian = tested on: NCI/ADR-RES ovarian
OVCAR-3 ovarian = tested on: OVCAR-3 ovarian
OVCAR-4 ovarian = tested on: OVCAR-4 ovarian
OVCAR-5 ovarian = tested on: OVCAR-5 ovarian
OVCAR-8 ovarian = tested on: OVCAR-8 ovarian
PC-3 prostate = tested on: PC-3 prostate
RPMI-8226 leukemia = tested on: RPMI-8226 leukemia
RXF 393 renal = tested on: RXF 393 renal
SF-268 CNS = tested on: SF-268 CNS
SF-295 CNS = tested on: SF-295 CNS
SF-539 CNS = tested on: SF-539 CNS
SK-MEL-2 melanoma = tested on: SK-MEL-2 melanoma
SK-MEL-28 melanoma = tested on: SK-MEL-28 melanoma
SK-MEL-5 melanoma = tested on: SK-MEL-5 melanoma
SK-OV-3 ovarian = tested on: SK-OV-3 ovarian
SN12C renal = tested on: SN12C renal
SNB-19 CNS = tested on: SNB-19 CNS
SNB-75 CNS = tested on: SNB-75 CNS
SR leukemia = tested on: SR leukemia
SW-620 colon = tested on: SW-620 colon
T-47D breast = tested on: T-47D breast
TK-10 renal = tested on: TK-10 renal
U251 CNS = tested on: U251 CNS
UACC-257 melanoma = tested on: UACC-257 melanoma
UACC-62 melanoma = tested on: UACC-62 melanoma
UO-31 renal = tested on: UO-31 renal

## CNC(=O)c1cccc2cc(Oc3ccnc4cc(OCC5(N)CC5)c(OC)cc34)ccc12
786-0 renal
  GI50: 2.82 µM
  TGI: 10.1 µM
A498 renal
  GI50: 0.167 µM
  TGI: 3.12 µM
A549 NSCLC
  GI50: 10.9 µM
  TGI: 26.3 µM
ACHN renal
  GI50: 1.96 µM
  TGI: 4.48 µM
BT-549 breast
  GI50: 5.63 µM
  TGI: 22.1 µM
CAKI-1 renal
  GI50: 11.9 µM
  TGI: 25 µM
CCRF-CEM leukemia
  GI50: 4.78 µM
  TGI: 29.7 µM
COLO 205 colon
  GI50: 8.66 µM
  TGI: 23.7 µM
DU-145 prostate
  GI50: 12.1 µM
  TGI: 25.5 µM
EKVX NSCLC
  GI50: 14.6 µM
  TGI: 34.5 µM
HCC-2998 colon
  GI50: 11 µM
  TGI: 26.2 µM
HCT-116 colon
  GI50: 5.2 µM
  TGI: 17.8 µM
HCT-15 colon
  GI50: 6.56 µM
  TGI: 20.2 µM
HL-60(TB) leukemia
  GI50: 8.26 µM
  TGI: 26.3 µM
HOP-62 NSCLC
  GI50: 10.7 µM
  TGI: 27.6 µM
HOP-92 NSCLC
  GI50: 6.89 µM
  TGI: 21 µM
HS 578T breast
  GI50: 5.5 µM
  TGI: 30.2 µM
HT29 colon
  GI50: 6.73 µM
  TGI: 21.1 µM
IGROV1 ovarian
  GI50: 7.63 µM
  TGI: 28.2 µM
K-562 leukemia
  GI50: 3.55 µM
  TGI: 16.7 µM
KM12 colon
  GI50: 6.17 µM
  TGI: 19.7 µM
LOX IMVI melanoma
  GI50: 3.89 µM
  TGI: 17.1 µM
M14 melanoma
  GI50: 8.47 µM
  TGI: 24.3 µM
MALME-3M melanoma
  GI50: 9.07 µM
  TGI: 26.8 µM
MCF7 breast
  GI50: 3.89 µM
  TGI: 17.8 µM
MDA-MB-231 breast
  GI50: 9.79 µM
  TGI: 27.9 µM
MDA-MB-435
  GI50: 3.09 µM
  TGI: 12 µM
MOLT-4 leukemia
  GI50: 3.49 µM
  TGI: 21.6 µM
NCI-H226 lung
  GI50: 1.02 µM
  TGI: 23.2 µM
NCI-H23 lung
  GI50: 11.2 µM
  TGI: 28.9 µM
NCI-H460 lung
  GI50: 5.12 µM
  TGI: 18.1 µM
NCI-H522 lung
  GI50: 8.94 µM
  TGI: 25.6 µM
NCI/ADR-RES ovarian
  GI50: 12.7 µM
  TGI: 31.9 µM
OVCAR-3 ovarian
  GI50: 8.86 µM
  TGI: 23.7 µM
OVCAR-4 ovarian
  GI50: 2.89 µM
  TGI: 21.8 µM
OVCAR-5 ovarian
  GI50: 6.94 µM
  TGI: 19.3 µM
OVCAR-8 ovarian
  GI50: 8.77 µM
  TGI: 27.4 µM
PC-3 prostate
  GI50: 11 µM
  TGI: 25.9 µM
RPMI-8226 leukemia
  GI50: 12.9 µM
  TGI: 39.7 µM
RXF 393 renal
  GI50: 4.42 µM
  TGI: 20.4 µM
SF-268 CNS
  GI50: 6.01 µM
  TGI: 24.2 µM
SF-295 CNS
  GI50: 10.1 µM
  TGI: 25 µM
SF-539 CNS
  GI50: 0.403 µM
  TGI: 6.61 µM
SK-MEL-2 melanoma
  GI50: 14.3 µM
  TGI: 32 µM
SK-MEL-28 melanoma
  GI50: 10.4 µM
  TGI: 30.3 µM
SK-MEL-5 melanoma
  GI50: 13.4 µM
  TGI: 26.7 µM
SK-OV-3 ovarian
  GI50: 12.1 µM
  TGI: 26.3 µM
SN12C renal
  GI50: 6.01 µM
  TGI: 24.1 µM
SNB-19 CNS
  GI50: 5.82 µM
  TGI: 30.4 µM
SNB-75 CNS
  GI50: 0.76 µM
  TGI: 15.5 µM
SR leukemia
  GI50: 2.29 µM
  TGI: 10.6 µM
SW-620 colon
  GI50: 5.96 µM
  TGI: 20.5 µM
T-47D breast
  GI50: 17.8 µM
  TGI: 39.2 µM
TK-10 renal
  GI50: 12.9 µM
  TGI: 26.6 µM
U251 CNS
  GI50: 9.43 µM
  TGI: 23.3 µM
UACC-257 melanoma
  GI50: 16.5 µM
  TGI: 32.2 µM
UACC-62 melanoma
  GI50: 4.03 µM
  TGI: 15.9 µM
UO-31 renal
  GI50: 2.57 µM
  TGI: 8.16 µM
